This is an account of results in US10899709B2, “Novel-alkynyl-substituted 3-phenylpyrrolidine-2,4-diones and use thereof as herbicides” (BAYER CROPSCIENCE AKTIENGESELLSCHAFT, priority 2015, dated 2021).

Type in all cases: in vivo
In experiment [1] the test system is Echinochloa crus-galli. Briefly: Pre-emergence herbicidal effect. The conditions noted are these: visual score after 3 weeks. The source says: (§1) Seeds of monocotyledonous and dicotyledonous weed plants and crop plants are laid out in wood-fibre pots in sandy loam and covered with soil. The compounds according to the invention formulated in the form of wettable powders (WP) or as emulsion concentrates (EC) are then applied as aqueous suspension or emulsion at a water application rate of 600 to 800 l/ha (converted) with the addition of 0.2% wetting agent to the surface of the covering soil. After the treatment, the pots are placed in a greenhouse and kept under good growth conditions for the trial plants. The damage to the test plants is scored visually after a test period of 3 weeks by comparison with untreated controls (herbicidal activity in percent (%): 100% activity=the plants have died, 0% activity=like control plants).

Experiment [2] relates to Setaria viridis. Briefly: Pre-emergence herbicidal effect. The conditions noted are these: visual score after 3 weeks.
Source text: as §1

Experiment [3] has as its system Alopecurus myosuroides. Briefly: Pre-emergence herbicidal effect. The conditions noted are these: visual score after 3 weeks.
Source text: as §1

For experiment [4], the system named is Lolium multiflorum. The experiment in a line: Pre-emergence herbicidal effect. The settings on record: visual score after 3 weeks.
Source text: as §1

Another experiment has as its system Cyperus esculentus. The experiment in a line: Pre-emergence herbicidal effect. The conditions noted are these: 320 g/ha, visual score after 3 weeks.
Source text: as §1

Experiment [5] concerns Echinochloa crus-galli. The experiment in a line: Post-emergence herbicidal effect. The conditions noted are these: visual assessment after about 3 weeks. The procedure:
(§2) Seeds of monocotyledonous and dicotyledonous weed and crop plants are laid out in sandy loam in wood-fibre pots, covered with soil and cultivated in a greenhouse under good growth conditions. 2 to 3 weeks after sowing, the test plants are treated at the one-leaf stage. The compounds according to the invention, formulated in the form of wettable powders (WP) or as emulsion concentrates (EC), are then sprayed as aqueous suspension or emulsion at a water application rate of 600 to 800 l/ha (converted) with the addition of 0.2% of wetting agent onto the green parts of the plants. After the test plants have been left to stand in the greenhouse under optimal growth conditions for about 3 weeks, the action of the preparations is assessed visually in comparison to untreated controls (herbicidal action in percent (%): 100% activity=the plants have died, 0% activity=like control plants).

Experiment [6] has as its system Setaria viridis. The experiment in a line: Post-emergence herbicidal effect. The conditions noted are these: visual assessment after about 3 weeks. The procedure:
as §2

The test system of experiment [7] is Alopecurus myosuroides. The experiment in a line: Post-emergence herbicidal effect. The settings on record: visual assessment after about 3 weeks. On the procedure:
as §2

Experiment [8] has as its system Lolium multiflorum. The experiment in a line: Post-emergence herbicidal effect. The settings on record: visual assessment after about 3 weeks. The procedure: as §2
The subject of experiment [9] is Avena fatua. The experiment in a line: Pre-emergence herbicidal effect. The conditions noted are these: visual score after 3 weeks.
Source text: as §1

For experiment [10], the system named is Avena fatua. The experiment in a line: Post-emergence herbicidal effect. The conditions noted are these: visual assessment after about 3 weeks. The procedure:
as §2

Each structure is given as a SMILES string.

`CCc1cc(C#CC2CC2)cc(C)c1C1=C(OC(=O)C(C)C)C2(CCC(COC)C2)NC1=O` (mixture of isomers) [Example Ia-10]: the “Pre-emergence effectiveness ECHCG” value in the experiment on Echinochloa crus-galli [1] (80 g/ha) and in the experiment with Echinochloa crus-galli [1] (320 g/ha) was 100% in each case. Further, the figures for the “Pre-emergence effectiveness SETVI” value with Setaria viridis [2] (80 g/ha) and in the experiment with Setaria viridis [2] (320 g/ha) were 90% and 100%, respectively. For the same compound, the “Pre-emergence effectiveness ALOMY” value worked out at 90% in the experiment on Alopecurus myosuroides [3] (80 g/ha) and 100% in the experiment on Alopecurus myosuroides [3] (320 g/ha). Further, the “Pre-emergence effectiveness LOLMU” value was 80% with Lolium multiflorum [4] (80 g/ha) and 100% with Lolium multiflorum [4] (320 g/ha). Moreover, the “Pre-emergence effectiveness CYPES” value with Cyperus esculentus turned out to be 80%. Further, the “Post-emergence effectiveness ECHCG” value in the experiment with Echinochloa crus-galli [5] (20 g/ha) and with Echinochloa crus-galli [5] (80 g/ha) was 90% in each case. Further, the “Post-emergence effectiveness SETVI” value with Setaria viridis [6] (20 g/ha) and with Setaria viridis [6] (80 g/ha) was 100% throughout. The “Post-emergence effectiveness ALOMY” value in the experiment on Alopecurus myosuroides [7] (80 g/ha) is reported as 80%. Also, the “Post-emergence effectiveness LOLMU” value in the experiment with Lolium multiflorum [8] (20 g/ha) is 80%; with Lolium multiflorum [8] (80 g/ha), 90%.

Take `CC#Cc1cc(C)c(C2=C(O)C3(CCC(COC)C3)NC2=O)c(CC)c1` (stereo not drawn) [Example I-9]: the “Pre-emergence effectiveness ECHCG” value in the experiment with Echinochloa crus-galli [1] (80 g/ha) and with Echinochloa crus-galli [1] (320 g/ha) was 100% each time. For the same compound, the “Pre-emergence effectiveness SETVI” value in the experiment with Setaria viridis [2] (80 g/ha) worked out at 90%; in the experiment with Setaria viridis [2] (320 g/ha), 100%. Also, the “Pre-emergence effectiveness AVEFA” value in the experiment on Avena fatua [9] (320 g/ha) is on record as 90%. Also, the “Pre-emergence effectiveness ALOMY” value in the experiment on Alopecurus myosuroides [3] (80 g/ha) and with Alopecurus myosuroides [3] (320 g/ha) was 100% in each case. The “Pre-emergence effectiveness LOLMU” value in the experiment on Lolium multiflorum [4] (80 g/ha) is 80%; in the experiment with Lolium multiflorum [4] (320 g/ha) it was 100%. Besides, the “Post-emergence effectiveness ECHCG” value in the experiment with Echinochloa crus-galli [5] (20 g/ha) and in the experiment with Echinochloa crus-galli [5] (80 g/ha) was 100% throughout. For the same compound, the “Post-emergence effectiveness SETVI” value in the experiment on Setaria viridis [6] (20 g/ha) and in the experiment with Setaria viridis [6] (80 g/ha) was 100% throughout. For the same compound, the “Post-emergence effectiveness AVEFA” value in the experiment with Avena fatua [10] (20 g/ha) worked out at 90%; in the experiment with Avena fatua [10] (80 g/ha), 100%. Moreover, the “Post-emergence effectiveness ALOMY” value in the experiment on Alopecurus myosuroides [7] (20 g/ha) and in the experiment on Alopecurus myosuroides [7] (80 g/ha) was 100% throughout. The “Post-emergence effectiveness LOLMU” value with Lolium multiflorum [8] (20 g/ha) and in the experiment with Lolium multiflorum [8] (80 g/ha) was 100% in each case.

As to `CC#Cc1cc(C)c(C2=C(O)C3(CCC(COC)C3)NC2=O)c(CC)c1` (stereo not drawn) [Example I-10], the “Pre-emergence effectiveness ECHCG” value in the experiment on Echinochloa crus-galli [1] (80 g/ha) and in the experiment on Echinochloa crus-galli [1] (320 g/ha) was 100% each time. Moreover, the figures for the “Pre-emergence effectiveness SETVI” value in the experiment on Setaria viridis [2] (80 g/ha) and in the experiment on Setaria viridis [2] (320 g/ha) were 80% and 100%, respectively. Also, the results for the “Pre-emergence effectiveness AVEFA” value with Avena fatua [9] (80 g/ha) and in the experiment with Avena fatua [9] (320 g/ha) were 80% and 100%, respectively. For the same compound, the “Pre-emergence effectiveness ALOMY” value came to 90% with Alopecurus myosuroides [3] (80 g/ha) and 100% in the experiment with Alopecurus myosuroides [3] (320 g/ha). Further, the “Pre-emergence effectiveness LOLMU” value with Lolium multiflorum [4] (80 g/ha) and in the experiment on Lolium multiflorum [4] (320 g/ha) was 100% throughout. In addition, the “Post-emergence effectiveness ECHCG” value in the experiment with Echinochloa crus-galli [5] (20 g/ha) and in the experiment on Echinochloa crus-galli [5] (80 g/ha) was 100% each time. Moreover, the “Post-emergence effectiveness SETVI” value in the experiment on Setaria viridis [6] (20 g/ha) turned out to be 90%; in the experiment on Setaria viridis [6] (80 g/ha) it was 100%. The “Post-emergence effectiveness AVEFA” value in the experiment on Avena fatua [10] (20 g/ha) and in the experiment on Avena fatua [10] (80 g/ha) was 100% in each case. The “Post-emergence effectiveness ALOMY” value in the experiment on Alopecurus myosuroides [7] (20 g/ha) and in the experiment on Alopecurus myosuroides [7] (80 g/ha) was 100% each time. Further, the “Post-emergence effectiveness LOLMU” value in the experiment on Lolium multiflorum [8] (20 g/ha) and in the experiment with Lolium multiflorum [8] (80 g/ha) was 100% each time.

Consider `CCc1cc(C#CC2CC2)cc(C)c1C1=C(O)C2(CCC(COC)C2)NC1=O` (stereo not drawn) [Example I-12], for which the “Pre-emergence effectiveness ECHCG” value came to 90% in the experiment on Echinochloa crus-galli [1] (80 g/ha) and 100% in the experiment on Echinochloa crus-galli [1] (320 g/ha). The “Pre-emergence effectiveness SETVI” value is on record as 90% in the experiment on Setaria viridis [2] (80 g/ha) and 100% in the experiment on Setaria viridis [2] (320 g/ha). For the same compound, the figures for the “Pre-emergence effectiveness AVEFA” value with Avena fatua [9] (80 g/ha) and in the experiment with Avena fatua [9] (320 g/ha) were 100% and 80%, respectively. The “Pre-emergence effectiveness ALOMY” value in the experiment on Alopecurus myosuroides [3] (320 g/ha) was determined as 100%. Further, the “Pre-emergence effectiveness LOLMU” value with Lolium multiflorum [4] (80 g/ha) and with Lolium multiflorum [4] (320 g/ha) was 100% throughout. Also, the “Post-emergence effectiveness ECHCG” value with Echinochloa crus-galli [5] (20 g/ha) and with Echinochloa crus-galli [5] (80 g/ha) was 100% in each case. Also, the “Post-emergence effectiveness SETVI” value with Setaria viridis [6] (20 g/ha) and with Setaria viridis [6] (80 g/ha) was 100% in each case. Moreover, the “Post-emergence effectiveness AVEFA” value with Avena fatua [10] (20 g/ha) and in the experiment with Avena fatua [10] (80 g/ha) was 80% throughout. The “Post-emergence effectiveness ALOMY” value in the experiment with Alopecurus myosuroides [7] (80 g/ha) was determined as 90%. The “Post-emergence effectiveness LOLMU” value with Lolium multiflorum [8] (80 g/ha) was determined as 90%.
